Experiments:
PglBCj = format: biochemical, Campylobacter jejuni
LBT-PglBCl-Δ1-12 [1] = molecular target: T1, LBT-PglBCl-Δ1-12 (Campylobacter lari, UniProt B9KDD4); format: binding; settings: read-out: KD (glycan substrate); LRET titration, UndPPT-Fl from 0.014 to 5 μM, luminescence at 544 nm
LBT-PglBCj-Δ1-11 = LBT-PglBCj-Δ1-11 (Campylobacter jejuni subsp. jejuni serotype O:2, UniProt Q0P9C8); format: binding
LBT-PglBCl-Δ1-12 [2] = molecular target: T1, LBT-PglBCl-Δ1-12; format: binding; settings: Tb^3+ relative to LBT-PglB

Und-PP-diNAcBac-GalNAc-GalNAz conjugated to acetylene-545 fluorophore [UndPPT-Fl]
tolerated as glycosyl donor substrate (PglBCj): tolerates | Kd (LBT-PglBCl-Δ1-12 [1]): 330 ± 70 nM

[Tb+3] [Tb^3+, terbium]
Tb^3+ saturation stoichiometry (LBT-PglBCj-Δ1-11; Tb^3+ relative to LBT-PglB): saturated at one molar equivalent | Kd (LBT-PglBCj-Δ1-11; read-out: Tb^3+ KD, estimated, sensitized luminescence at 544 nm): 2300 nM | Tb^3+ saturation stoichiometry (LBT-PglBCl-Δ1-12 [2]): saturated at one molar equivalent

Reference: PMC5480290 (Journal of the American Chemical Society, 2016)
